≈ marks a conversion by molar mass, not a printed value. Read-outs that look alike come from different tables or passages of the source.
Assays:
[1] = molecular target: T1, Co(II)-substituted E. coli PDF (Escherichia coli, UniProt P0A6K3); experiment: PDF assay coupled to formate dehydrogenase; assay type: biochemical
T1 construct: made in house

MMP-1 = molecular target: T2, MMP-1 (Homo sapiens, UniProt P03956); experiment: Inhibition of human matrix metalloproteases; assay type: biochemical; conditions: read-out: percentage of MMP-1 activity remaining; for remaining activity at 1 µM: inhibitor 1.0 μM; for remaining activity at 10 µM: inhibitor 10 μM
T2 sequence (P03956 100-469): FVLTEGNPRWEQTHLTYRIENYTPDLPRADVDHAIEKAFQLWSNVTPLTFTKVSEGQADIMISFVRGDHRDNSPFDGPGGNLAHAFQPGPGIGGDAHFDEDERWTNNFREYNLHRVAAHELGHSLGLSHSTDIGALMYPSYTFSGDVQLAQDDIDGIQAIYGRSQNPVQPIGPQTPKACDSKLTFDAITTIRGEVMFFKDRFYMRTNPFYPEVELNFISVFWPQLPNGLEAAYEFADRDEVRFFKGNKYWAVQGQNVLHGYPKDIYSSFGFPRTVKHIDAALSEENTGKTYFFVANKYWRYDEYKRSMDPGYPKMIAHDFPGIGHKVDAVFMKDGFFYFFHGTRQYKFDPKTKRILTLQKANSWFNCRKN
Experimental: (§1) Inhibition of Metalloproteases (MMP) Several of the inhibitors were tested for inhibition of human matrix metalloproteases, which are often used as indicators of inhibitor selectivity (no inhibition of MMP is desired). Each inhibitor was tested at two different concentrations (1.0 and 10 μM). The values reported are the percentage of MMP activity remaining in the presence of added inhibitor.

MMP-9 = MMP-9 (Homo sapiens, UniProt P14780); experiment: Inhibition of human matrix metalloproteases; assay type: biochemical; conditions: read-out: percentage of MMP-9 activity remaining; for remaining activity at 1 µM: inhibitor 1.0 μM; for remaining activity at 10 µM: inhibitor 10 μM
Sequence of MMP-9 (P14780 94-707): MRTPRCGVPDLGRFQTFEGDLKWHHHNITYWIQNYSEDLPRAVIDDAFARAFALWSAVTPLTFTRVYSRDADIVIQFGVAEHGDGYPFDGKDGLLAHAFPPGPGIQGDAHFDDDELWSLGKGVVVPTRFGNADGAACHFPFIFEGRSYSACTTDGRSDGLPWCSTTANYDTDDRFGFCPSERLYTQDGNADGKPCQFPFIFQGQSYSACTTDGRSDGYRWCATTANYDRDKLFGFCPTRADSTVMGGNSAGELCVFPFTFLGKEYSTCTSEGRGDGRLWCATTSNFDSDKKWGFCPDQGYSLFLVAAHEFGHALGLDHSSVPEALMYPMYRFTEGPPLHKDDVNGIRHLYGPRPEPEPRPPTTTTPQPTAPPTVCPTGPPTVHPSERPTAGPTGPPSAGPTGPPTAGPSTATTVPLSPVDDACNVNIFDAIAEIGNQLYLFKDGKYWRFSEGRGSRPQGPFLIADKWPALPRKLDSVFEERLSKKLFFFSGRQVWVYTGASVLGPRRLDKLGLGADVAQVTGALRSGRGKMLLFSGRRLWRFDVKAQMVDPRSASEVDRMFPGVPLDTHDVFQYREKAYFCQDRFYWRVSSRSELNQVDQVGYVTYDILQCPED
Experimental: as §1

MMP-3 = MMP-3 (Homo sapiens, UniProt P08254); experiment: Inhibition of human matrix metalloproteases; assay type: biochemical; conditions: read-out: percentage of MMP-3 activity remaining; for remaining activity at 1 µM: inhibitor 1.0 μM; for remaining activity at 10 µM: inhibitor 10 μM
Sequence of MMP-3 (P08254 100-477): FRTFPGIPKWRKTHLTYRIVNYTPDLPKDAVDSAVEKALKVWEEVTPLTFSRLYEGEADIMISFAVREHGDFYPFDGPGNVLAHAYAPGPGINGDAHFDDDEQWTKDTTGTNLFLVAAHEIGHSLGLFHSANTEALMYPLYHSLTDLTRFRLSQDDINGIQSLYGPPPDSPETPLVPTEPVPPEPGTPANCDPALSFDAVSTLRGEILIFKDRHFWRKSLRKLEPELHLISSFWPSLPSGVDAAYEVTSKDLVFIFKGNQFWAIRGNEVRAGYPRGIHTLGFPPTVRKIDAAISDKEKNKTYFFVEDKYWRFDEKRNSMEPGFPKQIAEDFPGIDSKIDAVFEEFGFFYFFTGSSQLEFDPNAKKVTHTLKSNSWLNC
Experimental: as §1

MMP2 = molecular target: T3, MMP2 (Homo sapiens, UniProt P08253); experiment: Inhibition of human matrix metalloproteases; assay type: biochemical; conditions: read-out: percentage of MMP2 activity remaining; for remaining activity at 1 µM: inhibitor 1.0 μM; for remaining activity at 10 µM: inhibitor 10 μM
T3 sequence (P08253 110-660): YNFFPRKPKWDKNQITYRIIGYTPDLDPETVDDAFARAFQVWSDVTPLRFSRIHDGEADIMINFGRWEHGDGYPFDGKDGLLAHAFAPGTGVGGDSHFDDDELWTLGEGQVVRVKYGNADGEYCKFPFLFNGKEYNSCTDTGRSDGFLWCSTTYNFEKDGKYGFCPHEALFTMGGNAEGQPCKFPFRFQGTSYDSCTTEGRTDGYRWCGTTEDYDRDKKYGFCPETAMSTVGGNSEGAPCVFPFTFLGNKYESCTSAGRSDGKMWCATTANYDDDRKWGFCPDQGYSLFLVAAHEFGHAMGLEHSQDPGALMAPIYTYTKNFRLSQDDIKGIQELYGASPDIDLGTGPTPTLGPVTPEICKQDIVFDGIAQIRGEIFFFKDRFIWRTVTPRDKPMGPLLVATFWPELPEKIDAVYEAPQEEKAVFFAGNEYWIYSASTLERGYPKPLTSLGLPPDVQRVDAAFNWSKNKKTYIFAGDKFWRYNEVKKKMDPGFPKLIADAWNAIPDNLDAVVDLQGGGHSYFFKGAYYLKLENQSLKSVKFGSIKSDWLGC
Experimental: as §1

E. faecalis (ATCC 29212) = experiment: Antibacterial activity (MIC); assay type: cell-based; conditions: Enterococcus faecalis, ATCC29212
Experimental: (§2) Antibacterial Activity of PDF Inhibitors Inhibitors 2-7E were tested against two or more bacterial strains for antibacterial activities.

[2] = test system: H. influenzae (ATCC 31517); experiment: Antibacterial activity (MIC); assay type: cell-based; conditions: Haemophilus influenzae, ATCC31517
Experimental: as §2

[3] = test system: M. catarrhalis (ATCC 37054); experiment: Antibacterial activity (MIC); assay type: cell-based; conditions: Moraxella catarrhalis, ATCC37054
Experimental: as §2

[4] = test system: S. pneumoniae (ATCC 49619); experiment: Antibacterial activity (MIC); assay type: cell-based; conditions: Streptococcus pneumoniae, ATCC49619
Experimental: as §2

[5] = test system: S. pneumoniae (ATCC 6301); experiment: Antibacterial activity (MIC); assay type: cell-based; conditions: Streptococcus pneumoniae, ATCC6301
Experimental: as §2

[6] = test system: S. pneumoniae (ATCC 6303); experiment: Antibacterial activity (MIC); assay type: cell-based; conditions: Streptococcus pneumoniae, ATCC6303
Experimental: as §2

S. aureus (ATCC 29213) = experiment: Antibacterial activity (MIC); assay type: cell-based; conditions: Staphylococcus aureus, ATCC29213
Experimental: as §2

E. coli = experiment: Antibacterial activity (cell growth, MIC); assay type: cell-based; conditions: Escherichia coli
Experimental: (§3) FIG. 5 Inhibition of B. subtilis (A) and E. coli (B) cell growth by inhibitor 2. An overnight culture was diluted 1000-fold into 2 mL of fresh LB medium containing the specified concentrations of inhibitor 2 and incubated at 37° C. Cell densities were measured at the specified times on a UV-vis spectrophotometer.
(§4) The in vitro antibacterial activity of the cyclic inhibitor was tested against E. coli and Bacillus subtilis, the representative Gram-negative and Gram-positive bacteria, respectively.
(§5) Antimicrobial Susceptibility Testing. For Escherichia coli and Bacillus subtilis, cell growth was monitored on the Lambda-20 UV/Vis spectrophotometer at 600 nm. A single bacterial colony from a plate culture was grown overnight in LB media and was diluted 1000-fold into 2 mL of fresh growth medium containing 0-64 μg/mL of test agent in a 5-mL glass test tube shaken at a speed of 250 rpm. Cell growth (at 37° C.) was monitored for 0-600 min.
as §2

B. subtilis = experiment: Antibacterial activity (cell growth, MIC); assay type: cell-based; conditions: Bacillus subtilis, read-out: MIC
Experimental: as §3, §4, §5, §2

[7] = formate dehydrogenase-coupled assay, 4 nM E. coli PDF, pH 7.0, read-out: K1 (apparent inhibition constant)

T1 sequence (P0A6K3 whole entry): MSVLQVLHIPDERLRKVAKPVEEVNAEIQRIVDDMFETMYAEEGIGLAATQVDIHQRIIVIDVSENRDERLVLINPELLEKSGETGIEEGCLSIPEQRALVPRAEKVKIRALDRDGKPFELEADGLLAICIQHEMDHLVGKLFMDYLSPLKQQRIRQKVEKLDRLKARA

SMILES	Ki [1, 7] [nM]	remaining activity at 1 µM (MMP-1) [%]	remaining activity at 10 µM (MMP-1) [%]	remaining activity at 1 µM (MMP-9) [%]	remaining activity at 10 µM (MMP-9) [%]	remaining activity at 1 µM (MMP-3) [%]	remaining activity at 10 µM (MMP-3) [%]	remaining activity at 1 µM (MMP2) [%]	remaining activity at 10 µM (MMP2) [%]	MIC (E. faecalis (ATCC 29212)) [µg/mL]	MIC [2] [µg/mL]	MIC [3] [µg/mL]	MIC [4] [µg/mL]	MIC [5] [µg/mL]	MIC [6] [µg/mL]	MIC (S. aureus (ATCC 29213)) [µg/mL]	Ki [1] [nM]	MIC (E. coli) [µg/mL]	MIC (B. subtilis) [µg/mL]
CC(C)(C)[C@@H]1NC(=O)[C@@H](CN(O)C=O)CCCCCCCNC1=O [Compound 1E]	14 ± 3	100	99	92	89	97	80	90	85	–	–	–	–	–	–	–	–	–	–
CC(C)(C)[C@@H]1NC(=O)[C@@H](CN(O)C=O)CCCCCCCCCCCCCCNC1=O [Compound 5E]	–	93	92	96	94	97	96	100	100	> 32	> 32	< 0.031	8 (≈ 18.2 µM)	8 (≈ 18.2 µM)	4 (≈ 9.1 µM)	> 32	25 ± 6	> 24	~16 (≈ 36.4 µM)
CCCC[C@H](CN(O)C=O)C(=O)N[C@H](C(=O)N(C)C)C(C)(C)C [BB-3497, reference compound]	~7	–	–	–	–	–	–	–	–	–	–	–	–	–	–	–	–	–	–
CC(C)(C)[C@@H]1NC(=O)[C@@H](CN(O)C=O)CCCCCCCCCCNC1=O [Compound 3E]	0.4	–	–	–	–	–	–	–	–	–	–	–	–	–	–	–	–	–	–
CC(=O)NCCCC[C@@H]1NC(=O)[C@@H](CN(O)C=O)CCCCCCCCCNC1=O [Compound 8E]	–	97	87	92	92	100	92	83	80	–	–	–	–	–	–	–	12 ± 4	–	–
